Reference: patent publication US6541503B2, “Substituted oxindole derivatives as protein tyrosine kinase and as protein serine/threonine kinase inhibitors” (SmithKline Beecham Corporation, priority 1997, dated 2003)

How the values were obtained:
[1] = target: T1, UL97 (Human cytomegalovirus, UniProt P16788); assay: UL97 protein kinase assay, 32P transfer from ATP to histone H2B; format: biochemical
T1 construct: GST; made in house; host or cells: baculovirus vector in Sf9 cells
Procedure: UL97 was produced as a GST fusion protein from a baculovirus vector expressed in sf9 cells as described by He (He, et al., Journal of Virology 1997, 71, 405-11). UL97 was assayed as a protein kinase using ^32P transfer from ATP to histone H2B with detection of radiolabeled histone bound to phosphocellulose. Assay mixes for testing inhibitors of UL97 activity contained 2 mM [γ^32P]-ATP, 15 mM histone H2B, 50 mM sodiumCHES, pH 9.5, 1 M NaCl, 2 mM dithiothreitol and 10 mM MgCl2. Inhibitors were dissolved in diluted DMSO to give a final DMSO concentration in the reaction of 1% DMSO. After incubation at 20° C., the reactions were terminated by addition of 10 volumes of 75 mM phosphoric acid, 30 mM ATP, 1 mM EDTA, then were spotted onto phosphocellulose filters and washed four times with 75 mM phosphoric acid. Radioactivity was determined by liquid scintillation counting.

[2] = test system: RKO colon adenocarcinoma cells; assay: FACS assay (cell death by flow cytometry), RKO; format: cell-based, human; conditions: Homo sapiens, 72 h, read-out: FACS RKO IC50
Procedure: These assays allow determination of both cell death and changes in cell cycle profile in cells following treatment of the compound. The assay is performend as follows:
1. Cells are incubated in DMEM to which 10% FCS has been added in a humidified incubator at 37° C. and 5% by volume of CO2 in air. The cells are innoculated in 6-well plates at a density of 0.5-5×10^5 cells per well.
2. The test compound is added in serial dilutions 24-36 h after plating in 0.5% DMSO. The plates are then incubated a further 72 h in the presence of the compound. During this time, cells in control cultures undergo at least three cell divisions.
3. After incubation, the media is collected and cells are harvested by trypsinization. The cells and media are pooled and pelleted by centrifugation.
4. The cell pellet is fixed in a final volume of 3 mL of 50% ice cold MeOH and incubated for a minimum of 30 min at −20° C.
5. The cells are pelleted by centrifugation and resuspended in 0.5 mL PBS containing 1%FCS, […] Propidium Iodide (PI) and 5 mg/mL RNase A and incubated 30 min at 37° C. in the dark.
6. The samples are analysed by flow cytometry using the relative incorporation of PI as a measure of DNA content of each cell. The % Dead cells is recorded as % of events with less than 2N DNA.
(§1) HDF are normal diploid fibroblast cells. RKO are colon adenocarcinoma cells and MES/SA are […].

[3] = test system: RKO colon adenocarcinoma cells; assay: MTT assay, RKO; format: cell-based, human
Procedure: Compounds are tested for their ability to inhibit cell proliferation and cell viability. The metabolic conversion of 3-(4,5-dimethylthiazol-2-yl)-2,5-diphenyltetrazolium bromide (MTT, Sigma #M2128) to a reduced form is a commonly used measure of cellular viability. Following is the procedure:
Cells are maintained in 75 cm^2 tissue culture flasks until ready for use. The cells are grown and plated for the assay in Dulbecco's modified Eagle's media (DMEM) containing 10% fetal bovine serum. For example, the following cell lines can be used: a) human foreskin fibroblasts (HFF); b) HT29 (human colon carcinoma cell line); c)MDA-MB-468 (human breast carcinoma cell line); d) RKO (human colon adenocarcinoma cell line); e) SW620 (human colon carcinoma cell line); f) A549 (human lung carcinoma cell line); and g) MIA PACA (human pancreatic carcinoma cell line). Cells are maintained at 37° C. in 10% CO2, 90% humidified air. Cells are plated in 96-well tissue culture plates at the densities listed below. 100 μL of cell suspension is added to each well of the 96-well plate except the top row of the plate which contains no cells and serves as a reference for the spectrophotometer.
Cells are incubated overnight in DMEM containing 10% fetal bovine serum at 37° C. in 10% CO2, 90% humidified air prior to dosing. […] Compounds with solubilities of less than 30 μM are dosed at the highest soluble concentration. Stock solutions of compounds are made in 100% dimethyl sulfoxide (DMSO). Stock solutions are diluted in DMEM containing 100 μg/ml gentamicin and 0.3 to 0.6% DMSO at the twice the highest concentration to be placed on the cells. If compounds have been dissolved in DMSO the final concentration of DMSO on the cells is kept below 0.3%. Three-fold serial dilutions are performed on each compound to prepare 10 concentrations of the compound for dosing. 100 μl of diluted compound is added to the 100 μl of media currently on the dish. For each concentration of compound, 2-4 replicate wells are prepared.
Cells are returned to incubator and allowed to proliferate in the presence of compound for 72 h before addition of MTT. MTT is prepared in phosphate buffered saline (Irvine Scientific #9240) at a concentration of 2 mg/ml. 50 μl per well of MTT solution is added to the 200 μl of media to yield a final concentration of 0.4 mg/ml and plates are returned to the incubator for 4 h. After 4 h incubation the media, compound and MTT mixture is aspirated from the plates and 100 μl of 100% DMSO is added to each well in addition to 25 μl of Sorenson's Buffer (0.1M glycine, 0.1M NaCl, pH 10.5). Quantitation of metabolic reduction of MTT in each plate is performed by reading optical density at 570 nm wavelength on a Molecular Devices UVmax microplate reader. Growth inhibition curves and 50% inhibitory concentrations are determined using Microsoft Excel.
as §1

[4] = Homo sapiens, 72 h, read-out: MTT RKO IC50
[5] = Homo sapiens, 72 h; read-out: MTT RKO IC50

T1 sequence (P16788 whole entry): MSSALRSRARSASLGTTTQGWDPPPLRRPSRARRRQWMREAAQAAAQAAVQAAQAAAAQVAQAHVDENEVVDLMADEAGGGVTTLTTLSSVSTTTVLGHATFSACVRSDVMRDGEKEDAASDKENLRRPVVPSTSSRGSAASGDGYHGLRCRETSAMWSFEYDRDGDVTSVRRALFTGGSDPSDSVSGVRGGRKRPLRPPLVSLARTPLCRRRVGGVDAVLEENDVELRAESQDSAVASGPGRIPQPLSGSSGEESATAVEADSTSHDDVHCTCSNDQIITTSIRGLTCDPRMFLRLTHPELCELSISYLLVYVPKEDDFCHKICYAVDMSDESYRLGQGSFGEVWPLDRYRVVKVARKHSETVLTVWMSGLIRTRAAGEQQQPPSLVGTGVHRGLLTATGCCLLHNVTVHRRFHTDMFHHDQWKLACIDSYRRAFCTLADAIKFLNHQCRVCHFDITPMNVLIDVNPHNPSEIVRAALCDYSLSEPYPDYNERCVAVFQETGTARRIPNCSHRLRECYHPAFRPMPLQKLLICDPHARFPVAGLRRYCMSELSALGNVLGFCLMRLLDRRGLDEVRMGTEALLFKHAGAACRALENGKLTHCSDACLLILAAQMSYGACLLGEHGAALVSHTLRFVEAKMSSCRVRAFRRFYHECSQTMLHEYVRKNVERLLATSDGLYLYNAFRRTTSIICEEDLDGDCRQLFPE

| Compound | IC50 [1] | IC50 [2] | IC50 [3, 4] | IC50 ([2]; 50% cell death) | IC50 [3, 5] |
| --- | --- | --- | --- | --- | --- |
| CNS(=O)(=O)Cc1ccc(NN=C2C(=O)Nc3ccc4ncccc4c32)cc1 [Example 68, N-Methyl-C-{4-[N′-(2-oxo-2,3-dihydro-pyrrolo[3,2-f]quinolin-1-ylidene)-hydrazino]-phenyl}-methanesulfonamide] | 11 to 50 nM | 1100 to 5000 nM | > 5 µM | – | – |
| O=C1Nc2ccc3ncsc3c2C1=CNc1ccc(S(=O)(=O)Nc2ccccn2)cc1 [Example 72, 4-[(7-Oxo-6,7-dihydro-1-thia-3,6-diaza-as-indacen-8-ylidenemethyl)-amino]-N-pyridin-2-yl-benzenesulfonamide] | 11 to 50 nM | 1100 to 5000 nM | 1.1 to 5 µM | – | – |
| CS(=O)(=O)Cc1ccc(NC=C2C(=O)Nc3ccc4ncsc4c32)cc1 [Example 76, 8-(4-Methylsulfonylmethyl-phenylamino-methylene)-6,8-dihydro-1-thia-3,6-diaza-as-indacen-7-one] | – | – | – | 1100 to 5000 nM | > 5 µM |
| CC(C)(CO)CNS(=O)(=O)c1ccc(NC=C2C(=O)Nc3ccc4ncsc4c32)cc1 [Example 77, N-(3-Hydroxy-2,2-dimethyl-propyl)-4-[(7-oxo-6,7-dihydro-1-thia-3,6-diaza-as-indacen-8-ylidenemethyl)-amino]-benzenesulfonamide] | 1 to 10 nM | – | – | 1100 to 5000 nM | 1.1 to 5 µM |
| CNS(=O)(=O)Cc1ccc(NN=C2C(=O)Nc3cc(C)c(O)c(C)c32)cc1 [Example 99] | 1 to 10 nM | – | – | 100 to 500 nM | 0.1 to 0.5 µM |
